Measured values: the supplement of paper PMC10307832

Assays:
Experiment in all cases: relative viability (nuclei count vs DMSO), 5 days (fraction); higher = more cells survive
Bleomycin + Palbociclib = compound: CC1=C(N=C(N=C1N)[C@H](CC(=O)N)NC[C@@H](C(=O)N)N)C(=O)N[C@@H]([C@H](C2=CN=CN2)OC3C(C(C(C(O3)CO)O)O)OC4C(C(C(C(O4)CO)O)OC(=O)N)O)C(=O)N[C@H](C)[C@H]([C@H](C)C(=O)N[C@@H]([C@@H](C)O)C(=O)NCCC5=NC(=CS5)C6=NC(=CS6)C(=O)NCCC[S+](C)C)O [Bleomycin] + CC(=O)c1c(C)c2cnc(Nc3ccc(N4CCNCC4)cn3)nc2n(C2CCCC2)c1=O [Palbociclib] (partner 0.5 µM); conditions: main component drawn
In short: (§1)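 After 5 days of treatment, lung cancer cells in 1536-well plates were fixed and stained in a single step (final 0.05% Triton X-100, 1% formaldehyde, 1 ug/ml Hoechst) and their nuclei counted on 4× images. Treatment had been applied by pin tool the day after seeding as one drug alone or as a fixed anchor-drug dose with five library-drug doses (not always all listed) in √10 steps. Relative viability is the nuclei count of treated wells divided by that of vehicle wells, and values are medians of duplicate plates.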

Bleomycin + Pemetrexed = compound: CC1=C(N=C(N=C1N)[C@H](CC(=O)N)NC[C@@H](C(=O)N)N)C(=O)N[C@@H]([C@H](C2=CN=CN2)OC3C(C(C(C(O3)CO)O)O)OC4C(C(C(C(O4)CO)O)OC(=O)N)O)C(=O)N[C@H](C)[C@H]([C@H](C)C(=O)N[C@@H]([C@@H](C)O)C(=O)NCCC5=NC(=CS5)C6=NC(=CS6)C(=O)NCCC[S+](C)C)O [Bleomycin] + Nc1nc2[nH]cc(CCc3ccc(C(=O)N[C@@H](CCC(=O)O)C(=O)O)cc3)c2c(=O)[nH]1 [Pemetrexed] (partner 0.2 µM); conditions: main component drawn
In short: as §1

Etoposide + Alpelisib = compound: COc1cc([C@@H]2c3cc4c(cc3[C@@H](O[C@@H]3O[C@@H]5CO[C@@H](C)O[C@H]5[C@H](O)[C@H]3O)[C@H]3COC(=O)[C@H]23)OCO4)cc(OC)c1O [Etoposide] + Cc1nc(NC(=O)N2CCC[C@H]2C(N)=O)sc1-c1ccnc(C(C)(C)C(F)(F)F)c1 [Alpelisib] (partner 2 µM)
In short: as §1

Etoposide + Decitabine = compound: COc1cc([C@@H]2c3cc4c(cc3[C@@H](O[C@@H]3O[C@@H]5CO[C@@H](C)O[C@H]5[C@H](O)[C@H]3O)[C@H]3COC(=O)[C@H]23)OCO4)cc(OC)c1O [Etoposide] + Nc1ncn([C@H]2C[C@H](O)[C@@H](CO)O2)c(=O)n1 [Decitabine] (partner 2 µM)
In short: as §1

| Cell Line | relative viability (Bleomycin + Palbociclib; first compound 0.01 µM) | relative viability (Bleomycin + Palbociclib; first compound 0.03162 µM) | relative viability (Bleomycin + Palbociclib; first compound 0.1 µM) | relative viability (Bleomycin + Palbociclib; first compound 0.3162 µM) | relative viability (Bleomycin + Palbociclib; first compound 1 µM) | relative viability (Bleomycin + Pemetrexed; first compound 0.01 µM) | relative viability (Bleomycin + Pemetrexed; first compound 0.03162 µM) | relative viability (Bleomycin + Pemetrexed; first compound 0.1 µM) | relative viability (Bleomycin + Pemetrexed; first compound 0.3162 µM) | relative viability (Bleomycin + Pemetrexed; first compound 1 µM) | relative viability (Etoposide + Alpelisib; first compound 0.01 µM) | relative viability (Etoposide + Alpelisib; first compound 0.03162 µM) | relative viability (Etoposide + Alpelisib; first compound 0.1 µM) | relative viability (Etoposide + Alpelisib; first compound 0.3162 µM) | relative viability (Etoposide + Alpelisib; first compound 1 µM) | relative viability (Etoposide + Decitabine; first compound 0.01 µM) | relative viability (Etoposide + Decitabine; first compound 0.03162 µM) | relative viability (Etoposide + Decitabine; first compound 0.1 µM) | relative viability (Etoposide + Decitabine; first compound 0.3162 µM) | relative viability (Etoposide + Decitabine; first compound 1 µM) |
| --- | --- | --- | --- | --- | --- | --- | --- | --- | --- | --- | --- | --- | --- | --- | --- | --- | --- | --- | --- | --- |
| LU99A | 0.329 | 0.405 | 0.286 | 0.167 | 0.126 | 0.158 | 0.157 | 0.159 | 0.165 | 0.133 | 0.522 | 0.629 | 0.331 | 0.24 | 0.143 | 0.893 | 0.928 | 0.504 | 0.473 | 0.246 |
| HCC-827 | 0.46 | – | 0.611 | 0.243 | 0.18 | 0.252 | – | 0.25 | 0.235 | 0.207 | 0.967 | 0.912 | 0.696 | 0.453 | 0.18 | 0.294 | 0.328 | 0.315 | 0.205 | 0.182 |
| LK-2 | 0.45 | 0.299 | 0.418 | 0.15 | 0.134 | 0.243 | 0.252 | 0.204 | 0.146 | 0.133 | 1.01 | 1.12 | 0.71 | 0.764 | 0.288 | 0.289 | 0.302 | 0.159 | 0.177 | 0.171 |
| HCC-366 | 0.19 | 0.155 | 0.106 | 0.0548 | 0.0409 | 0.169 | 0.207 | 0.178 | 0.0708 | 0.0498 | 0.305 | 0.39 | 0.333 | 0.162 | 0.0382 | 0.357 | 0.334 | 0.189 | 0.102 | 0.0877 |
| BEN | 0.482 | 0.473 | 0.452 | 0.444 | 0.408 | 0.809 | 0.757 | 0.723 | 0.616 | 0.679 | 0.841 | 1.08 | – | 0.87 | 0.852 | 0.742 | 0.769 | – | 0.692 | 0.476 |
| NCI-H2347 | 0.43 | 0.479 | 0.459 | 0.359 | 0.338 | 0.401 | 0.427 | 0.435 | 0.383 | 0.423 | 1.11 | 0.99 | 0.615 | 0.455 | 0.406 | 0.6 | 0.628 | 0.573 | 0.443 | 0.411 |
| NCI-H1395 | 0.518 | 0.549 | 0.499 | 0.341 | 0.342 | 0.64 | 0.702 | 0.566 | 0.4 | 0.371 | 1.02 | 1.14 | 0.773 | 0.798 | 0.69 | 0.726 | 0.755 | 0.681 | 0.667 | 0.653 |
| 201T | 0.397 | 0.32 | 0.384 | 0.311 | 0.336 | 0.332 | 0.283 | 0.303 | 0.281 | 0.271 | 1.02 | 1.06 | 0.921 | 0.94 | 0.691 | 0.835 | 0.886 | 0.758 | 0.641 | 0.384 |
| NCI-H2170 | 0.328 | 0.342 | 0.307 | 0.274 | 0.259 | 0.255 | 0.263 | 0.244 | 0.235 | 0.234 | 0.65 | 0.849 | – | 0.621 | 0.513 | 0.463 | 0.449 | – | 0.386 | 0.342 |
| NCI-H520 | 0.215 | 0.218 | 0.215 | 0.203 | 0.206 | 0.731 | 0.757 | 0.653 | 0.443 | 0.446 | 0.873 | 0.925 | 0.965 | 0.836 | 0.906 | 0.532 | 0.493 | 0.519 | 0.424 | 0.376 |
| HCC-15 | 0.711 | 0.686 | 0.648 | 0.343 | 0.285 | 0.22 | 0.193 | 0.233 | 0.193 | 0.154 | 0.894 | 0.898 | 0.721 | 0.333 | 0.122 | 0.667 | 0.665 | 0.668 | 0.286 | 0.174 |
| LCLC-103H | 0.501 | 0.525 | 0.547 | 0.373 | 0.43 | 0.452 | 0.443 | 0.455 | 0.487 | 0.419 | 1.02 | 1.12 | 0.774 | 0.973 | 0.703 | 0.763 | 0.835 | 0.766 | 0.71 | 0.599 |
| NCI-H460 | 0.0989 | 0.126 | 0.0546 | 0.0357 | 0.0284 | 0.0698 | 0.0674 | 0.0717 | 0.0385 | 0.0443 | 0.479 | 0.355 | 0.272 | 0.0559 | 0.0284 | 0.432 | 0.454 | 0.319 | 0.105 | 0.0405 |
| EPLC-272H | 0.329 | 0.311 | 0.311 | 0.213 | 0.218 | 0.294 | 0.198 | 0.146 | 0.121 | 0.131 | 0.965 | 0.934 | 0.606 | 0.931 | 0.539 | 0.339 | 0.412 | 0.338 | 0.328 | 0.297 |
